# From patent US8337809B2, “Charge-assembled capsules for phototherapy” (William Marsh Rice University, priority 2006, dated 2012)
# Legend:
# [1] = ICG leakage measurements / thermal degradation in PBS; type: physicochemical; details: 37° C.
# Method: The synthesis of ICG-NACs with ICG/PAH=0.04 was scaled up by 10 times. After washing with PBS solution, the precipitate was dispersed in PBS solution (2.6 mL) and split into 0.25 mL aliquots kept under constant shaking in the dark at either 23 or 37° C. Because of the long time scale of this study and the sensitivity of ICG to degradation in water, the suspension fluid was not analyzed for released ICG. Instead, the ICG contained within the ICG-NACs was quantified by inducing the disassembly of the ICG-NACs and immediately measuring the ICG concentration. Specifically, after a given aging time, each aliquot was centrifuged for 30 min and the concentrated precipitate suspension ([…]) was combined with 2.5 mL HNO3 solution (2 wt %). The resulting clear solution was then analyzed through UV-vis spectroscopy. As control samples, fresh ICG solution in PBS was prepared with a concentration close to that of the disassembled NAC solution (˜0.04 mg/mL) and incubated at 23 and 37° C. The samples were kept in the dark during aging.
# The ICG content of ICG-NACs (ICG/amine ratio=0.04) was quantified as a function of time by dis-assembling the capsules and measuring the absorbance of free ICG concentration at 780 nm (FIG. 9). For ICG-NACs at 23° C., more than 96% of ICG was retained. […]
# [2] = Laser-induced photothermal experiments (808 nm NIR diode laser)
# Method: (§1) Washed ICG-NACs (0.5 mL, ˜1×10^7 particles/mL, ˜1×10^9 ICG molecules/particles, 0.007 wt % ICG of suspension) were suspended in PBS solution and placed in the wells of a 24 well polystyrene culture dish. Control samples were a 0.007 wt % PBS solution of ICG and PBS solution. Containing 0.5 mL of aqueous suspension or solution, each well was irradiated with a continuous-wave near-infrared diode laser (Coherent FAP-System, 54 W, λ=808 nm, irradiance (Io)) 155 W/cm^2) for various time intervals. The laser beam impinged on the sample with a 6.66 mm diameter. During irradiation, the sample temperature was monitored with a K-type thermocouple (bead diameter) 0.003 in., Omega Engineering) located 1 mm outside the laser spot and recorded using LabVIEW data acquisition software (National Instruments, Austin, Tex.). For the SEM study, 5 identical batches were prepared and irradiated for various times. Each sample was then washed twice with Nanopure water and dried at room temperature for SEM imaging. Viability Assessment of Cells Exposed to ICG-NACs. […] Cell survival was quantified using the Live/Dead viability assay (Molecular Probes). Dead cells were differentiated from live cells through fluorescence microscopy, as the former emitted red fluorescence (from the ethidium homodimer-1 dye precursor) and the latter emitted green fluorescence (from the calcein acetoxymethyl ester dye precursor). […]
# [3] = system: fibroblasts (rat maxillary incisor pulp cells (RPC-C2A)); assay: Viability assessment of cells exposed to ICG-NACs (Live/Dead viability assay); type: cell-based
# Method: as §1
# [4] = cited from earlier work
# animal subjects = details: cited from earlier work
# [5] = ICG concentration 0.001 mg/ml at 42° C.; cited from earlier work
smiles,measurement,setting,value
"CC1(C)C(/C=C/C=C/C=C/C=C2\N(CCCCS(=O)(=O)O)c3ccc4ccccc4c3C2(C)C)=[N+](CCCCS(=O)(=O)[O-])c2ccc3ccccc3c21 [ICG, indocyanine green]",ICG lost at the end of 8 hr,"[1]; PBS, dark, capsules ICG/amine ratio=0.04, free ICG ~0.04 mg/mL",~35%
same,half-life,"[1]; ICG solution in PBS, free ICG in PBS, calculated",19 h
same,photothermal heating response,"[2]; constant 808 nm irradiation, compared with ICG-NACs",very similar heating curve
same,irradiation/cooling cycles in which the target temperature was reached,"[2]; irradiated to ~51-54° C. (ICG-NACs 55° C.), cooled to 30° C., repeated, photodegradation stability",4 cycles
same,toxicity to fibroblast cells,[3],non-toxic
same,half-life of rapid clearance from the circulatory system,[4]; initial fast phase,3 to 4 min
same,half-life of much slower clearance rate,"[4]; second, slower phase",≥ 1 h
same,semilethal dose LD50,animal subjects,50 to 80 mg/kg
same,published half-life of ICG,[5],~10 h
